# Patent US6485931B2, “CHOLESTEROL DEHYDROGENASE, COPROSTAN-3-ONE DEHYDROGENASE AND 4-CHOLESTEN-3-ONE DEHYDROGENASE, COMPOSITIONS CONTAINING THE DEHYDROGENASES, AND METHOD FOR REDUCING AMOUNT OF CHOLESTEROL USING THE COMPOSITIONS” (Kyowa Hakko Kogyo Co., Ltd., priority 1996, dated 2002)
# Assays:
# [1] = test system: 4-cholesten-3-one dehydrogenase B; test: 4-cholesten-3-one dehydrogenase B titer: coprostan-3-one produced, TLC/FID; assay type: biochemical, Eubacterium sp. CP 1; conditions: for relative activity (enzyme activity without adding inhibitor is 100): 1 mM inhibitor, 30 minutes, pH 7.5, 37° C.; for relative activity in comparison with the case of no addition: 1 mM metal salt
# Method: (§1) An enzyme solution was allowed to stand still at 37° C. for 15 minutes using various pH buffer solutions, and remaining activity was measured, and pH range in which activity was not less than 50% of the maximum active value was regarded as a stable pH range. (The following is the same.)
# With 0.2 ml of 3 mM 4-cholesten-3-one micelle solution containing 0.33% Triton X-100 is mixed 0.3 ml of a 20 mM Tris-hydrochloric acid buffer solution (pH 7.5) containing 1.0% Triton X-100and 1 mM DTT, and 0.1 ml of a10 mM NADH solution, the resulted mixture is added 0.05 ml of an enzyme solution, reacted for 30 minutes at 37° C., and then added 0.1 ml of chloroform to extract sterol and to terminate the reaction.
# (§2) Then, the quantity of coprostan-3-one produced in the reaction solution is determined using TLC/FID iatroscan. The quantity of coprostan-3-one produced in the reaction solution is determined likewise using an inactivated enzyme which has been previously heated as a control. The enzyme activity which produces 1 μmol of coprostan-3-one per one minute is regarded as 1 unit.
# [2] = test system: cholesterol in meat; test: enzymatic conversion to coprostanol in aging period of meat (Embodiment 10); assay type: biochemical; conditions: minced beef, each enzyme 0.2 unit/g meat, PL-D 2 unit/g meat, 0.5 ml 20% nicotinamide, aged 7 days
# Method: 10 g of beef 6 hours after slaughtering was made into minced meat, and to this was added the cholesterol dehydrogenase obtained in Embodiment 5 (0.2 unit/g meat), the 4-cholesten-3-one dehydrogenase obtained in Embodiment 6 (0.2 unit/g meat) and the coprostan-3-one dehydrogenase obtained in Embodiment 7 (0.2 unit/g meat) and mixed, and the mixture was aged at 5° C. for 7 days. Also, mixtures to which 0.5 ml of a 20% aqueous nicotinamide solution had been further added, meat to which phospholipase (2 unit/g meat) had been further added and meat to which both of them had been further added at the mixing were aged at […] for 7 days, respectively.
# After aging, the meat was freeze-dried and lipid components were extracted with a 25 ml extraction solvent (chloroform:methanol=2:1). Regarding the resulting extracted sample, the amount of converted sterol products was determined using gas chromatography (manufactured by GL Science, TC-1701, column φ0.25 […]×30 m). In Table 5, PL-D represents phospholipase D and COP represents coprostanol, respectively.
# [3] = test system: cholesterol dehydrogenase A; test: cholesterol dehydrogenase A titer: 4-cholesten-3-one produced from cholesterol micelle, TLC/FID; assay type: biochemical, Eubacterium sp. CP 2; conditions: for relative activity (enzyme activity without adding inhibitor defined as 100): 1 mM inhibitor, 30 minutes, pH 7.5, 37° C.; for relative activity as substrate (activity of cholesterol is 100): substrate specificity; for relative activity in comparison with the case of no addition: 1 mM metal salt
# Method: as §1
# With 0.2 ml of 3 mM cholesterol micelle solution containing 0.33% Triton X-100 is mixed 0.3 ml of a 20 mM piperazine-N,N′-bis-(2-ethane […]) (hereinafter, referred to as “PIPES”) buffer solution (pH 7.5) containing 0.5% Triton X-100 and 1 mM dithiothreitol (hereinafter, referred to as “DTT”), and 0.1 ml of a 10 mM […] solution, the resulted mixture is added 0.05 ml of an enzyme solution, reacted for 30 minutes at 37° C., and then added 0.1 ml of chloroform to extract sterol and to terminate the reaction.
# as §2, with “4-cholesten-3-one” for “coprostan-3-one”
# [4] = test system: coprostan-3-one dehydrogenase A; test: coprostan-3-one dehydrogenase A titer: coprostanol produced, TLC/FID; assay type: biochemical, Eubacterium sp. CP 2; conditions: for relative activity (enzyme activity without adding inhibitor defined as 100): 1 mM inhibitor, 30 minutes, pH 7.5, 37° C.; for relative activity in comparison with the case of no addition: 1 mM metal salt
# Method: as §1
# […] The enzyme solution was mixed with equal amounts of activating fractions and left for 15 minutes at 5° C., then used.
# (§3) Then, the quantity of coprostanol produced in the reaction solution is determined using TLC/FID iatroscan. The quantity of coprostanol in the reaction solution is determined likewise using an inactivated enzyme which has been previously heated as a control. The enzyme activity which produces 1 μmol of coprostanol per one minute is regarded as 1 unit.
# [5] = test system: cholesterol dehydrogenase B; test: cholesterol dehydrogenase B titer: 4-cholesten-3-one produced, TLC/FID; assay type: biochemical, Eubacterium sp. CP 1; conditions: for relative activity (enzyme activity without adding inhibitor is 100): 1 mM inhibitor, 30 minutes, pH 7.5, 37° C.; for relative activity as substrate (activity of cholesterol defined as 100): substrate specificity; for relative activity in comparison to the case of no addition: 1 mM metal salt
# Method: as §1
# With 0.2 ml of 3 mM cholesterol micelle solution containing 0.33% Triton X-100 is mixed 0.3 ml of a 50 mM phosphoric acid buffer solution (pH 7.5) containing 1.0% Triton X-100 and 1 mM DTT, and 0.1 ml of a 10 mM NADP solution, to the resulted mixture is added 0.05 ml of an enzyme solution, reacted for 30 minutes at 37° C., and then added 0.1 ml of chloroform to extract sterol and to terminate the reaction.
# Then, the quantity of 4-cholesten-3-one produced in the reaction solution is determined using TLC/FID iatroscan. […] The enzyme activity which produces 1 μmol of 4-cholesten-3-one per one minute is regarded as 1 unit.
# [6] = test system: coprostan-3-one dehydrogenase B; test: coprostan-3-one dehydrogenase B titer: coprostanol produced, TLC/FID; assay type: biochemical, Eubacterium sp. CP 1; conditions: for relative activity (enzyme activity without adding inhibitor is 100): 1 mM inhibitor, 30 minutes, pH 7.5, 37° C.; for relative activity in comparison to the case of no addition: 1 mM metal salt
# Method: as §1
# With 0.2 ml of 3 mM coprostan-3-one micelle solution containing 0.33% Triton X-100 is mixed 0.3 ml of a 20 mM Tris-hydrochloric acid buffer solution (pH 7.5) containing 1.0% Triton X-100 and 1 mM DTT, and 0.1 ml of a 10 mM NADPH solution, to the resulted mixture is added 0.05 ml of an enzyme solution, reacted for 30 minutes at 37° C., and then added 0.1 ml of chloroform to extract sterol and to terminate the reaction.
# as §3
# [7] = test system: 4-cholesten-3-one dehydrogenase A; test: 4-cholesten-3-one dehydrogenase A titer: coprostan-3-one produced, TLC/FID; assay type: biochemical, Eubacterium sp. CP 2; conditions: for relative activity (enzyme activity without adding inhibitor defined as 100): 1 mM inhibitor, 30 minutes, pH 7.5, 37° C.; for relative activity in comparison to the case of no addition: 1 mM metal salt; for relative activity as substrate (activity of 4-cholesten-3-one defined as 100): substrate specificity
# Method: as §1
# With 0.2 ml of 3 mM 4-cholesten-3-one micelle solution containing 0.33% Triton X-100 is mixed 0.3 ml of a 20 mM PIPES buffer solution (pH 7.5) containing 0.5% Triton X-100 and 1 mM DTT, and 0.1 ml of a 10 mM NADH solution, the resulted mixture is added 0.05 ml of an enzyme solution, and reacted for 30 minutes at 37° C., and then added 0.1 ml of chloroform to extract sterol and to terminate the reaction.
# as §2
# [8] = in vivo; cited from earlier work
compound,measurement,setting,value
CC(C)CCC[C@@H](C)[C@H]1CC[C@H]2[C@@H]3CC=C4CC(=O)CC[C@]4(C)[C@H]3CC[C@]12C [5-cholestenon-3-one],relative activity as substrate (activity of 4-cholesten-3-one defined as 100),[1]; substrate specificity,0
"NC(=O)c1cccnc1 [Nicotinamide, nicotinamide]",COP conversion (%),[2],0%
"O=S(=O)(O)c1cc[c]([Hg][Cl])cc1 [PCMB, p-chloro mercury phenylsulfonate]",relative activity (enzyme activity without adding inhibitor is 100),[1],0
same,relative activity (enzyme activity without adding inhibitor defined as 100),[3],0
same,relative activity (enzyme activity without adding inhibitor defined as 100),[4],41
same,relative activity (enzyme activity without adding inhibitor is 100),[5],0
same,relative activity (enzyme activity without adding inhibitor is 100),[6],0
same,relative activity (enzyme activity without adding inhibitor defined as 100),[7],47
CC(C)[C@H](C)CC[C@@H](C)[C@H]1CC[C@H]2[C@@H]3CC=C4C[C@@H](O)CC[C@]4(C)[C@H]3CC[C@]12C [campesterol],relative activity as substrate (activity of cholesterol is 100),[3],74
same,relative activity as substrate (activity of cholesterol defined as 100),[5],50
[Cl][Cu][Cl] [copper chloride],relative activity in comparison with the case of no addition,[1],0
same,relative activity in comparison with the case of no addition,[3],3.2
same,relative activity in comparison with the case of no addition,[4],2.7
same,relative activity in comparison to the case of no addition,[5],0
same,relative activity in comparison to the case of no addition,[6],0
same,relative activity in comparison to the case of no addition,[7],0
CC(C)CCC[C@@H](C)[C@H]1CC[C@H]2[C@@H]3CC[C@@H]4C[C@@H](O)CC[C@]4(C)[C@H]3CC[C@]12C [coprostanol],absorbability through the intestinal tract,[8],very low
NC(=O)CI [iodine acetamide],relative activity (enzyme activity without adding inhibitor is 100),[1],99
same,relative activity (enzyme activity without adding inhibitor defined as 100),[3],82
same,relative activity (enzyme activity without adding inhibitor defined as 100),[4],82
same,relative activity (enzyme activity without adding inhibitor is 100),[6],95
same,relative activity (enzyme activity without adding inhibitor defined as 100),[7],94
O=C(O)CI [iodine acetic acid],relative activity (enzyme activity without adding inhibitor is 100),[5],98
"O=P([O-])([O-])[O-].[Na+].[Na+].[Na+] [phosphate ion, trisodium phosphate]",effect on conversion reaction by cholesterol dehydrogenase B,[5],remarkably activated
CC(=O)[C@H]1CC[C@H]2[C@@H]3CCC4=CC(=O)CC[C@]4(C)[C@H]3CC[C@]12C [progesterone],relative activity as substrate (activity of 4-cholesten-3-one defined as 100),[7],41
CC[C@H](/C=C/[C@@H](C)[C@H]1CC[C@H]2[C@@H]3CC=C4C[C@@H](O)CC[C@]4(C)[C@H]3CC[C@]12C)C(C)C [stigmasterol],relative activity as substrate (activity of cholesterol is 100),[3],30
same,relative activity as substrate (activity of cholesterol defined as 100),[5],39
C[C@]12CC[C@H]3[C@@H](CCC4=CC(=O)CC[C@@]43C)[C@@H]1CC[C@@H]2O [testosterone],relative activity as substrate (activity of 4-cholesten-3-one defined as 100),[7],0
CC[C@H](CC[C@@H](C)[C@H]1CC[C@H]2[C@@H]3CC=C4C[C@@H](O)CC[C@]4(C)[C@H]3CC[C@]12C)C(C)C [β sitosterol],relative activity as substrate (activity of cholesterol is 100),[3],38
same,relative activity as substrate (activity of cholesterol defined as 100),[5],67
iron chloride,relative activity in comparison with the case of no addition,[1],107
same,relative activity in comparison with the case of no addition,[3],95
same,relative activity in comparison with the case of no addition,[4],12
same,relative activity in comparison to the case of no addition,[5],0
same,relative activity in comparison to the case of no addition,[6],105
same,relative activity in comparison to the case of no addition,[7],110
prognerone,relative activity as substrate (activity of 4-cholesten-3-one defined as 100),[7],0
